# Laboratory results taken from publication PMC12064818, “A general assay platform to study protein pharmacology using ligand-dependent structural dynamics” (Nature Communications, 2025).
# Biological target: T1, Nano luciferase (NLuc) (Oplophorus gracilirostris, UniProt Q9GV45, A31E/A60N/A81I/F95D/I117V/K70R/L54V/L99Q/M102K/N193R/P142E/Q151K/Q38R/Q45L/V71I/Y165I)
# T1 construct: His tag (inferred from IMAC purification); made in house; host or cells: E. coli
# Experiment: Thermal shift profiles (Thermofluor assay), NLuc
# Format: binding
# Set-up: unit of the concentration uncertain
# Details: compound 100 (unit uncertain); for Thermofluor NLuc, ATP: ATP (2 mM)
# Experimental: Thermal stabilization of proteins in the presence of the ligands were determined using Thermofluor technique. MicroAmp optical 384-well plates (Applied Biosystems by Life Technologies), ViiA 7 real-time PCR instrument (Applied Biosystems by Life Technologies) and SYPRO Orange (Life Technologies) were used to test the samples. […]. Proteins were added to the 384-well plate first followed by the compounds. Samples were incubated for 10 mins at room temperature and protected from light. SYPRO Orange dye was diluted to 50x from 5000x stock in a PBS buffer, and 4 µL dye was added to the each well using a multi-channel pipette. The plate was sealed with a MicroAmp optical adhesive film, centrifuged at 1500 RPM for 2 min, and then loaded onto the ViiA 7 real–time PCR instrument for fluorescence intensity measurements upon heating the sample from 25 to 95 °C at 1 °C/min increments. Data was exported to excel, fluorescence intensity data and its first derivative were normalized and plotted using GraphPad Prism to determine Tm. See Supplementary Table 3 for additional details.
# Supplementary Figure 6. Comparison of SDR and Thermofluor analysis of […]
# Temperature °C Temperature °C […]
# Supplementary Table 3. Protocol for Thermofluor assay
# Supplementary Table 3: Protocol for Therm ofluor assay
# Sequence Param eter Value Description […]
# 3 Incubation 10 m ins Room tem perature, protected from light
# 4 Dye 10X Sypro Orange dye in PBS added to the sam ple
# 5 Centrifugation 2 m in Centrifuge for 2 m in at 1500 RPM at RT
# 6 Read ViiA7 Read the therm al unfolding of the protein with ViiA7 real-tim e PCR system
# 4 Prepare 50X dye in PBS: 1 μL Sypro Orange 5000X (Life Technologies), 99 μL ddH2O. Add 4 μL to each well Read the m elting tem perature from 25 to 95 °C using ViiA 7 real tim e PCR instrum ent by following the below instructions Perform therm al denaturation in 384-well assay plate
# (i) Place the assay plate into the Applied Biosystem s ViiA7 real-tim e PCR instrum ent and open the ViiA7 RUO software.
# Under Experim ental Properties, select the following param eters: Set up: […] (20 μl), Experim ent type: MELT CURVE, Reagents used to detect target sequence: OTHER, Ram p Speed: […]
# (ii) Select the Define tab on the left, then select the following param eters: Target nam e: TARGET 1, Reporter: ROX, 6 Quencher: NONE, Passive Reference: NONE
# (iii) Select the Assign tab on the left, then perform the following actions: Highlight all 384 wells in the assay plate and check the box next to ‘Target 1’ on the top left of the plate layout. Note: check the ‘Sam ple’ box on the lower left.
# (iv) Select the Run Method tab on the left, then m ake the following changes to the default Melt Curve profile: Delete Step 2 of the default cycle, change run m ethod to “Step and Hold” with a 1:00 tim e, set the following tem peratures: an initial 2:00 hold at 25 °C (4 °C), ram ping up in increm ents of 1 ° C to a final tem perature of 95 °C (with a 2:00 hold), click on all three cam eras to activate fluorescence detection throughout the experim ent, and Select total volum e per well of 20 μl
# (v) Click on the RUN tab to the left to initiate therm al denaturation.
# T1 sequence (Q9GV45 other isoform, or with tags, fused parts or gaps with the stated changes): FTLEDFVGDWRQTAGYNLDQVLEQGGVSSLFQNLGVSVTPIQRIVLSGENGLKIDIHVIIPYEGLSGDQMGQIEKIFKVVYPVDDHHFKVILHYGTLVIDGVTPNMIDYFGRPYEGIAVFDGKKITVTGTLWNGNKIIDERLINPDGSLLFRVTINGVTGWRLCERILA
structure (smiles),measurement,setting,value
COc1ccc(NC(=O)C2CCN(C(=O)c3ncn4c3COC(c3ccccc3)C4)CC2)cc1Cl (stereo not drawn) [NCGC 00449919],"Thermofluor NLuc, No ATP",20.000 °C,1
same,"Thermofluor NLuc, ATP",20.000 °C,0.908
same,"Thermofluor NLuc, No ATP",20.993 °C,0.737
same,"Thermofluor NLuc, ATP",20.993 °C,0.958
same,"Thermofluor NLuc, No ATP",21.987 °C,0.665
same,"Thermofluor NLuc, ATP",21.987 °C,0.992
same,"Thermofluor NLuc, No ATP",22.980 °C,0.636
same,"Thermofluor NLuc, ATP",22.980 °C,1
same,"Thermofluor NLuc, No ATP",23.974 °C,0.59
same,"Thermofluor NLuc, ATP",23.974 °C,0.981
same,"Thermofluor NLuc, No ATP",24.967 °C,0.577
same,"Thermofluor NLuc, ATP",24.967 °C,0.945
same,"Thermofluor NLuc, No ATP",25.960 °C,0.551
same,"Thermofluor NLuc, ATP",25.960 °C,0.901
same,"Thermofluor NLuc, No ATP",26.954 °C,0.532
same,"Thermofluor NLuc, ATP",26.954 °C,0.858
same,"Thermofluor NLuc, No ATP",27.947 °C,0.492
same,"Thermofluor NLuc, ATP",27.947 °C,0.821
same,"Thermofluor NLuc, No ATP",28.940 °C,0.484
same,"Thermofluor NLuc, ATP",28.940 °C,0.79
same,"Thermofluor NLuc, No ATP",29.934 °C,0.475
same,"Thermofluor NLuc, ATP",29.934 °C,0.766
same,"Thermofluor NLuc, No ATP",30.927 °C,0.424
same,"Thermofluor NLuc, ATP",30.927 °C,0.748
same,"Thermofluor NLuc, No ATP",31.921 °C,0.447
same,"Thermofluor NLuc, ATP",31.921 °C,0.735
same,"Thermofluor NLuc, No ATP",32.914 °C,0.416
same,"Thermofluor NLuc, ATP",32.914 °C,0.726
same,"Thermofluor NLuc, No ATP",33.907 °C,0.402
same,"Thermofluor NLuc, ATP",33.907 °C,0.72
same,"Thermofluor NLuc, No ATP",34.901 °C,0.393
same,"Thermofluor NLuc, ATP",34.901 °C,0.716
same,"Thermofluor NLuc, No ATP",35.894 °C,0.367
same,"Thermofluor NLuc, ATP",35.894 °C,0.71
same,"Thermofluor NLuc, No ATP",36.887 °C,0.355
same,"Thermofluor NLuc, ATP",36.887 °C,0.703
same,"Thermofluor NLuc, No ATP",37.881 °C,0.332
same,"Thermofluor NLuc, ATP",37.881 °C,0.693
same,"Thermofluor NLuc, No ATP",38.874 °C,0.332
same,"Thermofluor NLuc, ATP",38.874 °C,0.683
same,"Thermofluor NLuc, No ATP",39.868 °C,0.308
same,"Thermofluor NLuc, ATP",39.868 °C,0.672
same,"Thermofluor NLuc, No ATP",40.861 °C,0.311
same,"Thermofluor NLuc, ATP",40.861 °C,0.661
same,"Thermofluor NLuc, No ATP",41.854 °C,0.286
same,"Thermofluor NLuc, ATP",41.854 °C,0.65
same,"Thermofluor NLuc, No ATP",42.848 °C,0.281
same,"Thermofluor NLuc, ATP",42.848 °C,0.638
same,"Thermofluor NLuc, No ATP",43.841 °C,0.279
same,"Thermofluor NLuc, ATP",43.841 °C,0.624
same,"Thermofluor NLuc, No ATP",44.835 °C,0.247
same,"Thermofluor NLuc, ATP",44.835 °C,0.61
same,"Thermofluor NLuc, No ATP",45.828 °C,0.259
same,"Thermofluor NLuc, ATP",45.828 °C,0.594
same,"Thermofluor NLuc, No ATP",46.821 °C,0.247
same,"Thermofluor NLuc, ATP",46.821 °C,0.579
same,"Thermofluor NLuc, No ATP",47.815 °C,0.245
same,"Thermofluor NLuc, ATP",47.815 °C,0.563
same,"Thermofluor NLuc, No ATP",48.808 °C,0.238
same,"Thermofluor NLuc, ATP",48.808 °C,0.547
same,"Thermofluor NLuc, No ATP",50.795 °C,0.24
same,"Thermofluor NLuc, ATP",50.795 °C,0.504
same,"Thermofluor NLuc, No ATP",51.788 °C,0.229
same,"Thermofluor NLuc, ATP",51.788 °C,0.47
same,"Thermofluor NLuc, No ATP",52.782 °C,0.227
same,"Thermofluor NLuc, ATP",52.782 °C,0.422
same,"Thermofluor NLuc, No ATP",53.775 °C,0.227
same,"Thermofluor NLuc, ATP",53.775 °C,0.36
same,"Thermofluor NLuc, No ATP",54.768 °C,0.248
same,"Thermofluor NLuc, ATP",54.768 °C,0.285
same,"Thermofluor NLuc, No ATP",55.762 °C,0.239
same,"Thermofluor NLuc, ATP",55.762 °C,0.202
same,"Thermofluor NLuc, No ATP",56.755 °C,0.264
same,"Thermofluor NLuc, ATP",56.755 °C,0.122
same,"Thermofluor NLuc, No ATP",57.748 °C,0.317
same,"Thermofluor NLuc, ATP",57.748 °C,0.055
same,"Thermofluor NLuc, No ATP",58.742 °C,0.38
same,"Thermofluor NLuc, ATP",58.742 °C,0.012
same,"Thermofluor NLuc, No ATP",59.735 °C,0.412
same,"Thermofluor NLuc, ATP",59.735 °C,0
same,"Thermofluor NLuc, No ATP",60.729 °C,0.472
same,"Thermofluor NLuc, ATP",60.729 °C,0.021
same,"Thermofluor NLuc, No ATP",61.722 °C,0.524
same,"Thermofluor NLuc, ATP",61.722 °C,0.072
same,"Thermofluor NLuc, No ATP",62.715 °C,0.52
same,"Thermofluor NLuc, ATP",62.715 °C,0.145
same,"Thermofluor NLuc, No ATP",63.709 °C,0.568
same,"Thermofluor NLuc, ATP",63.709 °C,0.233
same,"Thermofluor NLuc, No ATP",65.695 °C,0.566
same,"Thermofluor NLuc, ATP",65.695 °C,0.416
same,"Thermofluor NLuc, No ATP",66.689 °C,0.551
same,"Thermofluor NLuc, ATP",66.689 °C,0.499
same,"Thermofluor NLuc, No ATP",68.676 °C,0.541
same,"Thermofluor NLuc, ATP",68.676 °C,0.632
same,"Thermofluor NLuc, No ATP",69.669 °C,0.515
same,"Thermofluor NLuc, ATP",69.669 °C,0.682
same,"Thermofluor NLuc, No ATP",70.662 °C,0.497
same,"Thermofluor NLuc, ATP",70.662 °C,0.723
same,"Thermofluor NLuc, No ATP",71.656 °C,0.488
same,"Thermofluor NLuc, ATP",71.656 °C,0.755
same,"Thermofluor NLuc, No ATP",72.649 °C,0.477
same,"Thermofluor NLuc, ATP",72.649 °C,0.781
same,"Thermofluor NLuc, No ATP",73.643 °C,0.428
same,"Thermofluor NLuc, ATP",73.643 °C,0.8
same,"Thermofluor NLuc, No ATP",74.636 °C,0.405
same,"Thermofluor NLuc, ATP",74.636 °C,0.812
same,"Thermofluor NLuc, No ATP",75.629 °C,0.392
same,"Thermofluor NLuc, ATP",75.629 °C,0.819
